# Literature values in US20110052650A1, “POROUS CRYSTALLINE HYBRID SOLID FOR ADSORBING AND RELEASING GAS OF BIOLOGICAL INTEREST” (Centre National De La Recherche Scientifique - CNR S, priority 2008, published 2011).
smiles,measurement,value
S [H2S],pKa,6.8
